# Target: cytochrome bo oxidase (Escherichia coli, UniProt P0ABI8)
# Format: biochemical
# cytochrome bo oxidase, sequence (P0ABI8 whole entry): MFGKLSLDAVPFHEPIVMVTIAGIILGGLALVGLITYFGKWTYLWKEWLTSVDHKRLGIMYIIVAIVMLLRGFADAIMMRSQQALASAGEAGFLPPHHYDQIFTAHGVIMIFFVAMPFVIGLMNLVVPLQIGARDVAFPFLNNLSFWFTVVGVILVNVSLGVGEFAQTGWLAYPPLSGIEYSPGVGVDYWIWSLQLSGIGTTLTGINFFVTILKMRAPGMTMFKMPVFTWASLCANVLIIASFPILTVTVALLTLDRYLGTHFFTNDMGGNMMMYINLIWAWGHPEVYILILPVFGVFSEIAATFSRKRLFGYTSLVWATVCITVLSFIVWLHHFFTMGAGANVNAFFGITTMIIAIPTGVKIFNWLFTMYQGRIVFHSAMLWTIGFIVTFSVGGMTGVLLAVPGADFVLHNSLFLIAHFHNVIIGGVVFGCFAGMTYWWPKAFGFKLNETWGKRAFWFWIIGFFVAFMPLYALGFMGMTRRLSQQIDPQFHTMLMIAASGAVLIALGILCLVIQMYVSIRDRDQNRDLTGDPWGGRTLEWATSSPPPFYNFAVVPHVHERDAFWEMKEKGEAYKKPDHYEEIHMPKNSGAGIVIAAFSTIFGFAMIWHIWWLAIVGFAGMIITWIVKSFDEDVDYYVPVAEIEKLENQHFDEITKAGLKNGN
# cytochrome bo oxidase, sequence (P0ABJ1 25-315 partner): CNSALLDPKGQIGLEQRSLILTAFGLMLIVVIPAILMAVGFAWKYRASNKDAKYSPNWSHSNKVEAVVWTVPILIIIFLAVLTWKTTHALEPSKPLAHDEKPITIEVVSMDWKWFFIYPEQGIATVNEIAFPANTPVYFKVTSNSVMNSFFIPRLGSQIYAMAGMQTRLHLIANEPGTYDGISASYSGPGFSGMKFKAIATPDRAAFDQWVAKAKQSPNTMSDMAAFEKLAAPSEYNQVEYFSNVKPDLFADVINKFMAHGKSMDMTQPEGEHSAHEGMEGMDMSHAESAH
# cytochrome bo oxidase, sequence (P0ABJ3 whole entry partner): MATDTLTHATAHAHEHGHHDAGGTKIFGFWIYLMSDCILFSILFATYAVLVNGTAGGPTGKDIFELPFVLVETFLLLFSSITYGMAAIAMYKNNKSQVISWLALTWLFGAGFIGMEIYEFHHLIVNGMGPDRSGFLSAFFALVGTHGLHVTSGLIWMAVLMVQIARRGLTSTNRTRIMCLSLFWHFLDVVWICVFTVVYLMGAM
# cytochrome bo oxidase, sequence (P0ABJ6 whole entry partner): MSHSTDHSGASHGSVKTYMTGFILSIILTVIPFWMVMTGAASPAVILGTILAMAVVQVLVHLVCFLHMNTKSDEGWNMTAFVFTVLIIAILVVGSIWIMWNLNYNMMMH
smiles,measurement,value
S [hydrogen sulfide],IC50,~5 µM

# Reference: paper PMC4925259 (Molecular microbiology, 2016)
